Test results taken from patent US4406875A, “Radiolabeled amine compounds and their use” (Byk-Mallinckrodt CIL B.V., priority 1979, dated 1983).

Key:
[1] = test system: fibrin; test: Incorporation of the radiolabeled compound into a fibrin clot (human fibrinogen, Factor XIII, human thrombin); assay type: biochemical; conditions: incubated about three and a half hours at about 37° C.; clot washed three times
Protocol: The radiolabeled amine compound N-(5-aminopentyl)-5-iodonaphthalenesulfonamide,I-125 is tested for its ability to be incorporated into fibrin.
The following solutions are mixed in a polystyrene test tube; (a) about 1 ml of a solution containing about 5 mg/ml of human fibrinogen (about 1.5×10^-5 M) and a tris-HCl buffer in a concentration of about 5×10^-3 M, the solution having a pH of about 7.4, (b) about 0.1 ml of a saline solution containing about 4×10^-2 units of blood Factor XIII, (c) about 0.1 ml of a 0.05 M cysteine solution having a pH of about 7.4, and (d) about 0.1 ml of a solution containing the N-(5-aminopentyl)-5-iodonaphthalenesulfonamide,I-125 compound in a concentration of about 2.3×10^-5 mmole and a radioactivity of about 1 μCi. Thereafter, about 0.2 ml of solution of about 0.05 M tris buffer and about 0.025 M CaCl2 which contains about 10 NIH units of human thrombin and has a pH of about 7.4 is added.
The resultant mixture is then incubated for about three and a half hours at about 37° C. whereupon a fibrin clot is formed. […] The radioactivity of the solution and the clot are then measured in a suitable detection apparatus. From these radioactivity measurements, it is determined that about 15% of the initial radioactivity is incorporated into the fibrin clot.

[2] = Stability towards deiodination and tissue incorporation after intravenous administration to rabbits; assay type: in vivo, New Zealand white rabbits; conditions: rabbit
Protocol: The radiolabeled amine compound N-(5-aminopentyl)-5-iodonaphthalenesulfonamide,I-`125 is tested for stability towards deiodination and for tissue incorporation by administering the compound to rabbits.
Two test solutions each of about 0.5 mCi of the above compound (spec. activity of about 1 mCi/mg) in about 1.45 ml of a physiological saline solution are prepared. A test solution is then intravenously administered to two New Zealand white rabbits, each weighing about 3 kg.
A blood sample is then taken from each rabbit at 12, 24, 36 and 72 hour periods after administration. The radioactivity of about 1 g of blood from samples for each time period is then measured. The measurements indicate that the radioactivity in the blood decreases slowly and that at about 72 hours after administration, about 20% of the initial radioactivity is still present in the blood. Due to the relatively slow disappearance of the subject compound from the bloodstream, the compound is therefore available in the bloodstream for a prolonged period of time which thereby increases its suitability to become incorporated into an occurring thrombus.
At the end of the 72 hour period, the rabbits are sacrificed and thereafter, the thyroid, liver, kidneys, lung, stomach wall, parotid glands, brains, muscle and bone tissue are removed and portions are measured for radioactivity. The thyroid contains only about 0.05% of the injected dose per gram which thereby indicates the stability of the subject compound towards deiodination. […] The liver contains about 0.04% and the gall bladder contains about 0.1% of the injected dose while the kidneys and the urine both contain about 0.3% of the dose.

[3] = test system: blood clot factor XIII; test: In vitro incorporation of the radiolabeled compound in casein by blood clot factor XIII (Km, Lineweaver-Burke plot); assay type: biochemical
Protocol: Incorporation of the radiolabeled compound produced in Example I in fibrin by means of the blood clot factor XIII was investigated in vitro in the following manner:
To about 400 ul of a physiolgical salt solution containing 10 units of Factor XIII per ml, the following solutions were successively added; (a) about 500 ul of 0.5 molar solution of cystein in a buffer solution of tris(hydroxymethyl)aminomethane having a pH of 7.4, (b) about 100 ul of a buffer solution of tris (hydroxymethyl) aminomethane having a pH of about 7.4 and in which about 250 units of thrombine per ml had been dissolved, (c) about 1200 ul of a buffer solution of tris(hydroxymethyl) aminomethane, (d) about 50 ul of 0.4 molar solution of calcium chloride in water, and (e) about 200 ul of 5% solution of casein in water. […]
After incubation of the test solutions at about 37° C. for about 15 minutes, the reaction was discontinued by the addition of about 200 ul of a 1 molar solution of monoidoacetic acid which has been brought to a pH of about 7.4 by a sodium hydroxide solution. […] The radioactivity in the high-molecular fraction was then measured to determine if the radiolabeled sulfonamide compound had indeed been incorporated into the casein. […]

Structure (SMILES)	initial radioactivity incorporated into the fibrin clot [1]	radioactivity in gall bladder ([2]; 72 hours)	radioactivity in kidneys ([2]; 72 hours)	radioactivity in liver ([2]; 72 hours)	radioactivity in urine ([2]; 72 hours)	initial radioactivity still present in the blood ([2]; about 0.5 mCi, about 72 hours after administration)	tissue uptake at 72 h ([2]; thyroid, 72 hours, indicates stability towards deiodination, read-out: radioactivity in thyroid) [%ID/g]	incorporation in casein (in words) ([3]; casein)	Km ([3]; casein as acceptor, 37° C., 15 minutes, pH 7.4, Lineweaver-Burke plot from measured radioactivity) [µM]
NCCCCCNS(=O)(=O)c1cccc2c([125I])cccc12 [N-(5-aminopentyl)-5-iodonaphthalenesulfonamide,I-125]	about 15%	about 0.1 % of the injected dose	about 0.3 % of the dose	about 0.04 % of the injected dose	about 0.3 % of the dose	about 20%	~0.05		
NCCCCCNS(=O)(=O)c1cccc2c([131I])cccc12 [N-(5-aminopentyl)-5-iodonaphthalene-1-sulfonamide-I-131]								amply sufficient to be incorporated efficiently in casein	250
